Assay results from patent US11739074B2, “Ras inhibitors” (Revolution Medicines, Inc., priority 2019, dated 2023).
Several values for one entry are separate records, joined by “and”; a condition that tells them apart may be missing. Equal values may be shown once. Read-outs that look alike come from different tables or passages of the source.

What was measured:
[1] = target: KRAS G13D (Homo sapiens, UniProt P01116+P62937, G13D); test: Ras-Raf disruption/FRET/MOA assay, KRAS G13D; assay type: biochemical; settings: disruption of BRAF RBD binding, with Cyclophilin A; read-out: KRAS G13D FRET IC50
Text: (§1) Disruption of B-Raf Ras-Binding Domain (BRAF^RBD) Interaction with K-Ras by Compounds of the Invention (Also Called a FRET Assay or an MOA Assay)
(§2) Note—The following protocol describes a procedure for monitoring disruption of K-Ras G12C (GMP-PNP) binding to BRAF^RBD by a compound of the invention. This protocol may also be executed substituting other Ras proteins or nucleotides, such as K-Ras G12D and K-Ras G13D.
(§3) The purpose of this biochemical assay was to measure the ability of test compounds to facilitate ternary complex formation between a nucleotide-loaded K-Ras isoform and Cyclophilin A; the resulting ternary complex disrupts binding to a BRAF^RBD construct, inhibiting K-Ras signaling through a RAF effector.
(§4) In assay buffer containing 25 mM HEPES pH 7.3, 0.002% Tween20, 0.1% BSA, 100 mM NaCl and 5 mM MgCl2, tagless Cyclophilin A, His6-K-Ras-GMPPNP, and GST-BRAF^RBD were combined in a 384-well assay plate at final concentrations of 25 μM, 12.5 nM, and 50 nM, respectively. Compound was present in plate wells as a 10-point 3-fold dilution series starting at a final concentration of 30 μM. After incubation at 25° C. for 3 hours, a mixture of anti-His Eu-W1024 and anti-GST allophycocyanin was then added to assay sample wells at final concentrations of 10 nM and 50 nM, respectively, and the reaction incubated for an additional 1.5 hours. […] Compounds that facilitate disruption of a K-Ras:RAF complex were identified as those eliciting a decrease in the TR-FRET ratio relative to DMSO control wells.

[2] = target: KRAS G12S (Homo sapiens, UniProt P01116+P62937, G12S); test: Ras-Raf disruption/FRET/MOA assay, KRAS G12S; assay type: biochemical; settings: disruption of BRAF RBD binding, with Cyclophilin A; read-out: KRAS G12S FRET IC50
Text: as §1, §2, §3, §4

[3] = target: KRAS G12V (Homo sapiens, UniProt P01116+P62937, G12V); test: Ras-Raf disruption/FRET/MOA assay, KRAS G12V; assay type: biochemical
Text: as §1, §2, §3, §4

[4] = target: KRAS WT (Homo sapiens, UniProt P01116+P62937); test: Ras-Raf disruption/FRET/MOA assay, KRAS WT; assay type: biochemical; settings: disruption of BRAF RBD binding, with Cyclophilin A; read-out: KRAS WT FRET IC50
Text: as §1, §2, §3, §4

[5] = target: T1, NRAS G12C (Homo sapiens, UniProt P01111+P62937, G12C); test: Ras-Raf disruption/FRET/MOA assay, NRAS G12C; assay type: biochemical; settings: NRAS G12C; read-out: NRAS G12C FRET data IC50
T1 construct: His6
Text: as §1, §2, §3, §4

[6] = system: NCI-H358 (K-Ras G12C); test: CellTiter-Glo cell viability assay, H358; assay type: cell-based; settings: Homo sapiens, NCI-H358, 120 h
In short: (§5)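 Test compounds were dispensed directly onto seeded cells, and on day 5 plates were brought to room temperature for about 30 minutes before CellTiter-Glo luminescence was read. Signals were expressed as percent of the mean DMSO control and fitted with a four-parameter logistic model.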

[7] = system: AsPC-1 (K-Ras G12D); test: CellTiter-Glo cell viability assay, AsPC-1; assay type: cell-based; settings: Homo sapiens, ASPC1, 120 h
In short: as §5

[8] = target: KRAS G12C (Homo sapiens, UniProt P01116+P62937, G12C); test: Ras-Raf disruption/FRET/MOA assay, KRAS G12C; assay type: biochemical; settings: disruption of BRAF RBD binding, with Cyclophilin A; read-out: KRAS G12C FRET IC50
Text: as §1, §2, §3, §4

[9] = target: KRAS G13C (Homo sapiens, UniProt P01116+P62937, G13C); test: Ras-Raf disruption/FRET/MOA assay, KRAS G13C; assay type: biochemical; settings: disruption of BRAF RBD binding, with Cyclophilin A; read-out: KRAS G13C FRET IC50
Text: as §1, §2, §3, §4

[10] = target: KRAS G12D (Homo sapiens, UniProt P01116+P62937, G12D); test: Ras-Raf disruption/FRET/MOA assay, KRAS G12D; assay type: biochemical; settings: disruption of BRAF RBD binding, with Cyclophilin A; read-out: KRAS G12D FRET IC50
Text: as §1, §2, §3, §4

[11] = system: AsPC-1 (K-Ras G12D); test: Potency assay: pERK in AsPC-1 cells; assay type: cell-based; settings: Homo sapiens
[12] = disruption of BRAF RBD binding, with Cyclophilin A, read-out: KRAS G12V FRET IC50
[13] = NCI-H358, K-Ras G12C, 5-day treatment, read-out: H358 Cell Viability IC50
[14] = AsPC-1, K-Ras G12D, 5-day treatment, read-out: AsPC-1 Cell Viability IC50
[15] = read-out: H358 Cell Viability IC50, NCI-H358, K-Ras G12C, 5-day treatment

Sequence of KRAS G12V (P01116 1-169 isoform P01116-2 G12V limits assumed): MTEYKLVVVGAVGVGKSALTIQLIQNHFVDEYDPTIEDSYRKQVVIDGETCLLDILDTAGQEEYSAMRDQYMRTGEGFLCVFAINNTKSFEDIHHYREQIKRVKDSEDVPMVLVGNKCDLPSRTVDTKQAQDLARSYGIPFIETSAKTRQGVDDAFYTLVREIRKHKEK
Sequence of KRAS G12V (P62937 whole entry): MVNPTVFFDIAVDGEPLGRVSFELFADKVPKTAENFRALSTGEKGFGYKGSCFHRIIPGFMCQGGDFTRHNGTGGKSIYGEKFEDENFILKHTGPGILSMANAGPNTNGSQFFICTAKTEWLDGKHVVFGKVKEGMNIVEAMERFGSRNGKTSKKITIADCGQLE
T1 sequence (P01111 whole entry G12C): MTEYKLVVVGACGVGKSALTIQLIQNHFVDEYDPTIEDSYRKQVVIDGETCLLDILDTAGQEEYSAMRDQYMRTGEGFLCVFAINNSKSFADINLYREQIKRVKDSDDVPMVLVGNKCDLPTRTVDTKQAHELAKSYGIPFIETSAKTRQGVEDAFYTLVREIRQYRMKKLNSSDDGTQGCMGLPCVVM
T1 sequence (P62937 whole entry): as the sequence (P62937 whole entry) above
Sequence of KRAS G12S (P01116 1-169 isoform P01116-2 G12S limits assumed): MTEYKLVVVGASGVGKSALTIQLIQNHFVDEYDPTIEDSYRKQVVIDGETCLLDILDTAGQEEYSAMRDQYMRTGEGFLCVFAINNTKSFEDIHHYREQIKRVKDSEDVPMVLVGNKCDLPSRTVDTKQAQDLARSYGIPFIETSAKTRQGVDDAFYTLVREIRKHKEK
Sequence of KRAS G12S (P62937 whole entry): as the sequence (P62937 whole entry) above
Sequence of KRAS G13D (P01116 1-169 isoform P01116-2 G13D limits assumed): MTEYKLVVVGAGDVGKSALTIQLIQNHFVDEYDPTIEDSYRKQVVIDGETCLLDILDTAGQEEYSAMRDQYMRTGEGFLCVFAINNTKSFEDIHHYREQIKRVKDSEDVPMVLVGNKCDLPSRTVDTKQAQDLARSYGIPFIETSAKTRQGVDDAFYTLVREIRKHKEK
Sequence of KRAS G13D (P62937 whole entry, the tested form may be a part): as the sequence (P62937 whole entry) above
Sequence of KRAS WT (P01116 1-169 isoform P01116-2 limits assumed): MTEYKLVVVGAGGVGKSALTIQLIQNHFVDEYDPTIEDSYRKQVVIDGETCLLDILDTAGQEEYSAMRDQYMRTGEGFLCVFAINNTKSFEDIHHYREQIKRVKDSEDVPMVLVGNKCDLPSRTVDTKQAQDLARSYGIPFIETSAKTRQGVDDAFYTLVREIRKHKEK
Sequence of KRAS WT (P62937 whole entry): as the sequence (P62937 whole entry) above
Sequence of KRAS G12C (P01116 1-169 isoform P01116-2 G12C limits assumed): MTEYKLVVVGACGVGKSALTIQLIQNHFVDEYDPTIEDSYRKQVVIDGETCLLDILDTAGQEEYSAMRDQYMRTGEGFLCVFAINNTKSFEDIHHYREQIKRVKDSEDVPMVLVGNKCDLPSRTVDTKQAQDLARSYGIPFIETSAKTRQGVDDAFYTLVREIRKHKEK
Sequence of KRAS G12C (P62937 whole entry): as the sequence (P62937 whole entry) above
Sequence of KRAS G13C (P01116 1-169 isoform P01116-2 G13C limits assumed): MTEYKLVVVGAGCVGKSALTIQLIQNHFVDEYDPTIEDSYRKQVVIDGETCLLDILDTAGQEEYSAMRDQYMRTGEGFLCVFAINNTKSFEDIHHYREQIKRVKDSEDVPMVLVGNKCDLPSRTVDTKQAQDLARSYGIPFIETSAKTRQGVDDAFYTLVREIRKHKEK
Sequence of KRAS G13C (P62937 whole entry): as the sequence (P62937 whole entry) above
Sequence of KRAS G12D (P01116 1-169 isoform P01116-2 G12D limits assumed): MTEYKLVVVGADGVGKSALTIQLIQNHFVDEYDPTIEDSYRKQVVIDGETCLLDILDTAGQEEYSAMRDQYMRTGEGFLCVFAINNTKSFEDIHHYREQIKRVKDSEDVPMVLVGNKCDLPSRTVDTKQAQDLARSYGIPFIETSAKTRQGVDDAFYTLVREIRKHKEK
Sequence of KRAS G12D (P62937 whole entry): as the sequence (P62937 whole entry) above

Row | SMILES | IC50 [3, 12] | IC50 [6, 13] | IC50 [7, 14] | also measured
1 | CCn1c(-c2cnccc2COC)c2c3cc(ccc31)-c1cccc(c1)C[C@H](NC(=O)[C@H](C(C)C)N(C)C(=O)[C@@H]1CC[C@@H](N=C=Nc3ccc(OC)cc3)C1)C(=O)N1CCC[C@H](N1)C(=O)OCC(C)(C)C2 [70 A and B] | > 10 µM |  |  | IC50 [1]: > 10 µM; IC50 [2]: > 10 µM; IC50 [4]: > 10 µM; IC50 [5]: 0.1 to 1 µM and > 10 µM
2 | CCn1c(-c2cnccc2COC)c2c3cc(ccc31)-c1cc(O)cc(c1)C[C@H](NC(=O)[C@@H](CN(C)C(=O)[C@@H]1CN1)C(C)C)C(=O)N1CCC[C@H](N1)C(=O)OCC(C)(C)C2 [Compound 60] | > 10 µM | 1 to 10 µM | 1 to 10 µM | IC50 [8]: > 10 µM
3 | CCn1c(-c2cnccc2COC)c2c3cc(ccc31)-c1cccc(c1)C[C@H](NC(=O)[C@H](C(C)C)N(C)C(=O)[C@H]1CC[C@H](N=C=Nc3ccc(OC)cc3)C1)C(=O)N1CCC[C@H](N1)C(=O)OCC(C)(C)C2 [71 A and B] | > 10 µM |  |  | IC50 [1]: > 10 µM; IC50 [2]: > 10 µM; IC50 [9]: > 10 µM; IC50 [10]: > 10 µM; IC50 [4]: > 10 µM; IC50 [5]: 0.1 to 1 µM and > 10 µM
4 | CCn1c(-c2cccnc2COC)c2c3cc(ccc31)-c1cc(O)cc(c1)C[C@H](NC(=O)[C@H](C(C)C)N(C)C(=O)CCNC(=O)NCCCl)C(=O)N1CCC[C@H](N1)C(=O)OCC(C)(C)C2 [Example 25, (2S)-2-(3-(3-(2-chloroethyl)ureido)-N-methylpropanamido)-N-((6^3S,4S)-1^1-ethyl-2^5-hydroxy-1^2-(2-(methoxymethyl)pyridin-3-yl)-10,10-dimethyl-5,7-dioxo-6^1,6^2,6^3,6^4,6^5,6^6-hexahydro-1^1H-8-oxa-1(5,3)-indola-6(1,3)-pyridazina-2(1,3)-benzenacycloundecaphane-4-yl)-3-methylbutanamide] |  |  |  | IC50 [6, 15]: > 10 µM; IC50 [3]: > 10 µM
5 | CCn1c(-c2cnccc2COC)c2c3cc(ccc31)-c1cccc(c1)C[C@H](NC(=O)[C@H](C(C)C)N(C)C(=O)CCCN=C=NCCCOC)C(=O)N1CCC[C@H](N1)C(=O)OCC(C)(C)C2 [69 A and B] | > 10 µM | 1 to 10 µM | 1 to 10 µM | 
6 | CCn1c(-c2cccnc2[C@H](C)OC)c2c3cc(ccc31)-c1cc(O)cc(c1)C[C@H](NC(=O)[C@H](C(C)C)N(C)C(=O)CN(C)C(=O)[C@@H]1N[C@H]1C(F)(F)F)C(=O)N1CCC[C@H](N1)C(=O)OCC(C)(C)C2 [Compound 260] |  |  |  | EC50 ([11]; ASPC1, read-out: pERK EC50 (AsPC-1 KRAS G12D)): < 5 µM; IC50 [6, 15]: 0.01 to 0.1 µM; IC50 ([7]; read-out: AsPC-1 Cell Viability IC50, AsPC-1, K-Ras G12D, 5-day treatment): 0.1 to 1 µM
7 | CCn1c(-c2cccnc2[C@H](C)OC)c2c3cc(ccc31)-c1csc(n1)C[C@H](NC(=O)[C@H](C(C)C)N(C)C(=O)N1CC[C@H](N(C)C(=O)[C@H]3CN3)C1)C(=O)N1CCC[C@H](N1)C(=O)OCC(C)(C)C2 [Compound 228] |  | 0.01 to 0.1 µM | 0.1 to 1 µM | EC50 ([11]; ASPC1, AsPC-1 cells, K-Ras G12D, read-out: pERK EC50 (AsPC-1 KRAS G12D)): < 5 µM

The next lines start with results.

Row | IC50 [3, 12] | IC50 [6, 13] | IC50 [7, 14] | SMILES | also measured
8 | > 10 µM |  | 1 to 10 µM | CCn1c(-c2cnccc2COC)c2c3cc(ccc31)-c1cccc(c1)C[C@H](NC(=O)[C@H](C(C)C)N1CC[C@H](CN=C=Nc3ccc(OC)cc3)C1)C(=O)N1CCC[C@H](N1)C(=O)OCC(C)(C)C2 [Compound 81] | 
9 | > 10 µM | > 10 µM |  | CCn1c(-c2cccnc2COC)c2c3cc(ccc31)-c1cc(O)cc(c1)C[C@H](NC(=O)[C@H](C(C)C)N(C)C(=O)CCNC1=NCCO1)C(=O)N1CCC[C@H](N1)C(=O)OCC(C)(C)C2 [Compound 27] | 
10 | > 10 µM | > 10 µM | > 10 µM | CCn1c(-c2cccnc2COC)c2c3cc(ccc31)-c1cc(O)cc(c1)C[C@H](NC(=O)[C@H](C(C)C)N(C)C(=O)CNC1=NCCO1)C(=O)N1CCC[C@H](N1)C(=O)OCC(C)(C)C2 [Compound 28] | 
